Each structure is given as a SMILES string.

The values below come from the OPERA property sets (Mansouri et al. 2018).

Conditions in one series: not given
In the case of `CCCCCCCCC(=O)CC`, the boiling point – broadly, the temperature of boiling at a given pressure – was found to be 227 °C and the melting point (in general, the temperature, or range, at which the solid turns liquid) worked out at 12 °C.
Compound `CC(=O)C1CC=C(C)CC1` (stereo unspecified) came in with a boiling point of 171 °C.
Turning to `CC1=C(C(=O)Nc2ccccc2)SCCO1`, the log10 Koc (L/kg) was 2.41, the log10 vapour pressure (mmHg) was -6.82, the melting point came to 91.5 °C and the ready biodegradability entry was “readily biodegradable”.
In turn, `Nc1ccc(N)c2ccccc12` had a melting point of 120 °C.
As for `Clc1cc2c(oc3c(Cl)cccc32)c(Cl)c1Cl`, the log10 vapour pressure (mmHg) was -7.4 and the melting point worked out at 190 °C.
With `CCOP(=S)(OCC)Oc1nc(Cl)n(C(C)C)n1`, the log10 Koc (L/kg) was determined as 2.01 and the log10 vapour pressure (mmHg) was -4.06.
In turn, `N#Cc1nn(-c2c(Cl)cc(C(F)(F)F)cc2Cl)c(N)c1S(=O)C(F)(F)F` (stereo unspecified) returned a log10 vapour pressure (mmHg) of -8.56 and a melting point of 200 °C.
The compound `O=[N+]([O-])c1ccc2[nH]ccc2c1` registered a melting point of 141 °C.
The compound `CCCCCCCCCCCCCCCCOC(=O)CCCCCCCCCCCCCCC` registered a melting point of 54 °C.
In turn, `CC(=O)Nc1ccc(C)cc1` had a boiling point of 307 °C and a melting point of 152 °C.
Compound `Clc1cc(Cl)c(Cl)c(-c2c(Cl)c(Cl)c(Cl)c(Cl)c2Cl)c1` yielded a log10 Henry constant (atm·m³/mol) of -4.85.
`COC(=O)C(C)N(C(=O)c1ccccc1)c1ccc(F)c(Cl)c1` (stereo unspecified): the melting point was 85 °C.
`CC(C)NCC(O)COc1ccc(O)cc1` (stereo unspecified): the melting point was found to be 128 °C.
In the case of `CCCCC1CCC(=O)O1` (stereo unspecified), the boiling point came to 234 °C.
Same read-out and setting: next, `Oc1c(F)c(F)c(C(F)(F)F)c(F)c1F`: 164 °C.
Compound `CCCCOC` registered a boiling point of 70.1 °C, a log10 vapour pressure (mmHg) of 2.14 and a melting point of -116 °C.
`CCOC(=O)C(CC)(CC)C(C)=O` displayed a boiling point of 216 °C.
Take `CC#CCCCCC`: the boiling point was found to be 138 °C, the log10 vapour pressure (mmHg) worked out at 0.875 and the melting point is -61.6 °C.
Compound `C=COC(C)C` showed a boiling point of 55.5 °C and a melting point of -140 °C.
Compound `C/N=C(\NC)NCc1ccccc1` gave a melting point of 196 °C.
Still for that read-out and setting: for `CCOC(=O)C1(c2cccc(O)c2)CCN(C)CC1` the value was 110 °C.
The same measure, in the same setting: next, `Cc1ccccc1NC(=N)NC(=N)N`: 144 °C; `CCC(=O)c1c(O)cc(O)cc1O`: 176 °C.
In turn, `CCOP(=S)(OCC)Oc1ccc(SC)cc1` registered a log10 Koc (L/kg) of 3.18.
Turning to `ClCC(Cl)C(Cl)Cl` (stereo unspecified), the boiling point was determined as 180 °C.
Take `CC(=O)c1ccc(C)s1`: the boiling point was 232 °C and the melting point worked out at 27.5 °C.
`CCCC(CC)CCC` returned a boiling point of 141 °C.
For the compound `Cc1ccc(CC(=O)O)cc1`, the boiling point is 265 °C and the melting point is 93 °C.
Compound `ClCc1cc(Cl)c(Cl)cc1Cl` yielded a boiling point of 273 °C.
The compound `C[C@H](N)[C@H](O)c1cccc(O)c1` registered a boiling point of 218 °C and a melting point of 108 °C.
`O=C(O)/C=C/Cl` showed a melting point of 82 °C.
Turning to `NNS(=O)(=O)c1ccc(Oc2ccc(S(=O)(=O)NN)cc2)cc1`, the ready biodegradability entry was “not readily biodegradable”.
`c1ccc(Oc2ccccc2)cc1` gave a boiling point of 258 °C, a log10 Koc (L/kg) of 3.29, a log10 vapour pressure (mmHg) of -1.65 and a melting point of 26.8 °C. Besides, the ready biodegradability entry is on record as “readily biodegradable”.
`COCCOCCOCCOCCOC` returned a boiling point of 275 °C.
`C1=CC(c2ccc(C3CC=CCC3)cc2)CCC1` (stereo unspecified): the ready biodegradability result is “not readily biodegradable”.
Turning to `N#CCc1ccccc1Br`, the melting point turned out to be 1 °C.
For the compound `Cn1cc[nH]c1=S`, the boiling point stood at 280 °C and the melting point was found to be 146 °C.
`CCCCOC(=O)C1(O)c2ccccc2-c2ccccc21` came in with a melting point of 71 °C.
Still for that read-out and setting: for `Oc1c(F)cccc1F` the value was 39.5 °C.
On to `COc1cc(OC)c(C(=O)O)cc1OC`, for which the boiling point was 300 °C and the melting point is 145 °C.
With `C=Cc1ccc(O)cc1`, the log10 vapour pressure (mmHg) is -1.85 and the melting point was found to be 73.5 °C.
In turn, `CCc1ccc2ccccc2c1` showed a boiling point of 258 °C, a log10 Henry constant (atm·m³/mol) of -3.27, a log10 Koc (L/kg) of 3.76 and a log10 vapour pressure (mmHg) of -1.5.
Compound `CC(=O)NBr` gave a melting point of 104 °C.
In turn, `CCCCCCOC(=O)CCCCC` yielded a boiling point of 246 °C and a melting point of -55 °C.
Compound `C[C@H](N[C@@H](C)c1ccccc1)c1ccccc1` displayed a boiling point of 296 °C.
`N#Cc1cccc(C=O)c1`: the boiling point stood at 210 °C and the melting point came out at 76.5 °C.
Regarding `C[C@H](O)C(F)(F)F`, the boiling point turned out to be 75.5 °C, the log10 Henry constant (atm·m³/mol) was -4.66 and the log10 vapour pressure (mmHg) was found to be 1.78.
The compound `Cc1cccc(OC(N)=O)c1` came in with a log10 Koc (L/kg) of 1.48.
`CC(O)C(Cl)(Cl)Cl` (stereo unspecified) yielded a boiling point of 163 °C and a melting point of 50.5 °C.
In the case of `CCOc1cccc(C(=O)O)c1`, the melting point is 137 °C.
On to `CCOC(=O)[C@@H](C)Br`, for which the boiling point is 160 °C.
As for `CC(=O)N(C)C(=O)COC(=O)c1ccccc1`, the melting point amounted to 102 °C.
As for `CC(=O)CCCCO`, the boiling point was 227 °C.
With `CC1(C)O[C@@H]2C[C@H]3[C@@H]4C[C@H](F)C5=CC(=O)C=C[C@]5(C)[C@@]4(F)[C@@H](O)C[C@]3(C)[C@]2(C(=O)CO)O1`, the melting point stood at 266 °C.
Compound `CCc1cccc(C)c1N(C(=O)CCl)C(C)COC` (stereo unspecified) had a log10 Henry constant (atm·m³/mol) of -8.05, a log10 Koc (L/kg) of 2.46, a log10 vapour pressure (mmHg) of -4.5 and a melting point of -51 °C.
Consider `Clc1cccc(Cl)c1N=C1NCCN1`, for which the melting point came to 130 °C.
`CCC(CC)c1ccncc1` showed a boiling point of 217 °C and a melting point of 126 °C.
`N#Cc1sc2c(=O)c3ccccc3c(=O)c=2sc1C#N`: the log10 vapour pressure (mmHg) is -10.7, the melting point is 225 °C and the ready biodegradability entry is given as “not readily biodegradable”.
Compound `CN1CCC(O)CC1` displayed a boiling point of 200 °C and a melting point of 29 °C.
`CCN(C(C)=O)C(C)=O` returned a boiling point of 197 °C.
Consider `CN1CCCC1=O`, for which the boiling point was 202 °C, the log10 Henry constant (atm·m³/mol) is -8.49, the log10 vapour pressure (mmHg) is -0.462 and the melting point was -24 °C. Further, the ready biodegradability result is “readily biodegradable”.
Compound `C1CSC1` displayed a boiling point of 95 °C, a log10 vapour pressure (mmHg) of 1.72 and a melting point of -73.2 °C.
The compound `c1ccc(Cc2ccncc2)cc1` came in with a boiling point of 288 °C and a melting point of 12.4 °C.
`CC(C1CC1)C(O)(Cn1cncn1)c1ccc(Cl)cc1` (stereo unspecified) registered a log10 vapour pressure (mmHg) of -6.59 and a melting point of 108 °C.
Turning to `Oc1ccc2c(c1)[C@@]13CCCC[C@@]1(O)[C@@H](C2)N(CC1CCC1)CC3`, the melting point was found to be 216 °C.
The compound `CN1CC1` yielded a boiling point of 27.5 °C.
As to `CCCCCCCCCCCCCCCCOP(=O)(O)OCCCCCCCCCCCCCCCC`, the melting point worked out at 74.5 °C.
As for `Cc1ccsc1Br`, the boiling point turned out to be 176 °C.
For the compound `CCNC1CCCCC1`, the boiling point was 164 °C.
The same measure, in the same setting: next, `C#CC(OCC)OCC`: 139 °C.
The compound `CC(C)(O)C(C)(C)O` yielded a melting point of 43 °C.
`O=[N+]([O-])c1ccc(O)cc1O`: the melting point is 122 °C.
On the same count and under the same terms, next, `CN(C)C(=O)CCCOC(=O)c1ccccc1`: 40.5 °C.
In turn, `CCCCC(=O)c1ccccc1` displayed a boiling point of 245 °C and a melting point of -9.4 °C.

Staying with this series, now noted: fish.
In turn, `Brc1cc(Br)c(Oc2c(Br)c(Br)c(Br)c(Br)c2Br)c(Br)c1Br` registered a log10 BCF of 5.75.
For the compound `N#Cc1nn(-c2c(Cl)cc(C(F)(F)F)cc2Cl)c(N)c1S(=O)C(F)(F)F` (stereo unspecified), the log10 biotransformation half-life (days) is -0.21.
`c1ccc(Oc2ccccc2)cc1` registered a log10 BCF of 2.5 and a log10 biotransformation half-life (days) of -0.09.
For `Brc1cc(Br)c(Oc2c(Br)c(Br)c(Br)c(Br)c2Br)cc1Br`, the log10 BCF was found to be 5.93.
